From patent US8378102B2, “Oxime and hydroxylamine substituted thiazolo[4,5-c] ring compounds and methods” (3M Innovative Properties Company, priority 2005, dated 2013)

SMILES | melting point [°C]
CC(C)=NOCc1nc2c(N)nc3ccccc3c2s1 [Example 1, Acetone O-[(4-amino[1,3]thiazolo[4,5-c]quinolin-2-yl)methyl]oxime] | 152 to 153
CC(C)=NOCc1nc2c(N)nc3cc(Br)ccc3c2s1 [Example 2, Acetone O-(4-amino-7-bromo[1,3]thiazolo[4,5-c]quinolin-2-ylmethyl)oxime] | 211 to 213
CON=Cc1nc2c(N)nc3cc(Br)ccc3c2s1 [Example 3, 4-Amino-7-bromo[1,3]thiazolo[4,5-c]quinoline-2-carbaldehyde O-methyloxime] | 262 to 264
CON=Cc1nc2c(N)nc3cc(-c4ccccc4)ccc3c2s1 [Example 138, 4-Amino-7-phenyl-thiazolo[4,5-c]quinoline-2-carbaldehyde O-methyl-oxime] | 259 to 261
CON=Cc1nc2c(N)nc3cc(-c4cccc(NS(C)(=O)=O)c4)ccc3c2s1 [Example 139, N-{3-[4-Amino-2-(methoxyimino-methyl)-thiazolo[4,5-c]quinolin-7-yl]-phenyl}-methanesulfonamide] | 254 to 256
